Laboratory results from patent US9975888B2, “Aryl linked imidazole and triazole derivatives and methods of use thereof for improving the pharmacokinetics of a drug” (MERCK SHARP & DOHME CORP., priority 2013, dated 2018).

Legend:
Assay type in all cases: biochemical
CYP1A2 = biological target: T1, CYP1A2 (Homo sapiens, UniProt P05177); assay: Cocktail assay for CYPs, phenacetin O-deethylation (CYP1A2), human liver microsomes; details: 10 μM phenacetin, 0.1 mg/mL human liver microsomes, 10 min at 37° C.; read-out: CYP IC50 (nM) 1A2
T1 construct: 0.1 mg/mL protein human liver microsomes (BD Gentest); tissue BD Gentest; host or cells: human liver microsomes
T1 sequence (P05177 1-516): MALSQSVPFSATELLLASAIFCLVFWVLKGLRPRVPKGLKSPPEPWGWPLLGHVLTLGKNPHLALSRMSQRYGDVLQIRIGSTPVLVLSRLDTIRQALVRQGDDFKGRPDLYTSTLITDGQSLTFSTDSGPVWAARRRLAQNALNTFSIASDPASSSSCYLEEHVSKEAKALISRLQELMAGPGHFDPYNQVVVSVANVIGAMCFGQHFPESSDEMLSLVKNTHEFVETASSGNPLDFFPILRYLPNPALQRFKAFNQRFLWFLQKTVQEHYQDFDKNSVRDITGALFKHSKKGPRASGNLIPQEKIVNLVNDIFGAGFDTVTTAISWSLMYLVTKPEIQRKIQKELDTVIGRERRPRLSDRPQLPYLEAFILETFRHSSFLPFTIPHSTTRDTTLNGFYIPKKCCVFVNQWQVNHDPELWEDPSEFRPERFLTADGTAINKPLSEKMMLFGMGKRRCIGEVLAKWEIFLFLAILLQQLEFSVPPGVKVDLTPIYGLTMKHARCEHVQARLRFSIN
Method in brief: (§1)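 Pooled human liver microsomes (0.1 mg/mL) with a probe cocktail of 10 μM phenacetin, 5 μM dextromethorphan and 2 μM midazolam plus NADPH, pH 7.4, 10 min at 37° C. Each metabolite was quantified by LC/MS/MS against a tolbutamide internal standard. IC50 came from % inhibition at 6 concentrations (e.g. 0.0032–10 μM) by non-linear regression.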

CYP2C9 = biological target: T2, CYP2C9 (Homo sapiens, UniProt P11712); assay: Cocktail assay for CYPs, diclofenac 4′-hydroxylation (CYP2C9), human liver microsomes; details: 5 μM diclofenac, 0.1 mg/mL human liver microsomes, 10 min at 37° C.; read-out: CYP IC50 (nM) 2C9
T2 construct: 0.1 mg/mL protein human liver microsomes (BD Gentest); tissue BD Gentest; host or cells: human liver microsomes
Method in brief: (§2)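 Pooled human liver microsomes (0.1 mg/mL) with probe cocktail incl. 5 μM diclofenac (CYP2C9) and 30 μM mephenytoin (CYP2C19), 1 mM NADPH, pH 7.4 phosphate buffer, 10 min at 37° C. Metabolites quantified by LC/MS/MS against internal standard; % inhibition versus no-inhibitor control, IC50 by non-linear regression.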

CYP2C19 = biological target: T3, CYP2C19 (Homo sapiens, UniProt P33261); assay: Cocktail assay for CYPs, mephenytoin 4′-hydroxylation (CYP2C19), human liver microsomes; details: 30 μM mephenytoin, 0.1 mg/mL human liver microsomes, 10 min at 37° C.; read-out: CYP IC50 (nM) 2C19
T3 construct: 0.1 mg/mL protein human liver microsomes (BD Gentest); tissue BD Gentest; host or cells: human liver microsomes
Method in brief: as §2

CYP2D6 = biological target: T4, CYP2D6 (Homo sapiens, UniProt P10635); assay: Cocktail assay for CYPs, dextromethorphan O-demethylation (CYP2D6), human liver microsomes; details: 5 μM dextromethorphan, 0.1 mg/mL human liver microsomes, 10 min at 37° C.; read-out: CYP IC50 (nM) 2D6
T4 construct: 0.1 mg/mL protein human liver microsomes (BD Gentest); tissue BD Gentest; host or cells: human liver microsomes
Method in brief: as §1

CYP3A4 [1] = biological target: T5, CYP3A4 (Homo sapiens, UniProt P08684); assay: Cocktail assay for CYPs, midazolam 1′-hydroxylation (CYP3A4), human liver microsomes; design: 0.1 mg/mL protein human liver microsomes (BD Gentest); tissue BD Gentest; host or cells: human liver microsomes; details: 2 μM midazolam, 0.1 mg/mL human liver microsomes, 10 min at 37° C.; read-out: CYP IC50 (nM) 3A4 (MDZ)
Method in brief: as §1
Target sequence in this assay (P08684 whole entry): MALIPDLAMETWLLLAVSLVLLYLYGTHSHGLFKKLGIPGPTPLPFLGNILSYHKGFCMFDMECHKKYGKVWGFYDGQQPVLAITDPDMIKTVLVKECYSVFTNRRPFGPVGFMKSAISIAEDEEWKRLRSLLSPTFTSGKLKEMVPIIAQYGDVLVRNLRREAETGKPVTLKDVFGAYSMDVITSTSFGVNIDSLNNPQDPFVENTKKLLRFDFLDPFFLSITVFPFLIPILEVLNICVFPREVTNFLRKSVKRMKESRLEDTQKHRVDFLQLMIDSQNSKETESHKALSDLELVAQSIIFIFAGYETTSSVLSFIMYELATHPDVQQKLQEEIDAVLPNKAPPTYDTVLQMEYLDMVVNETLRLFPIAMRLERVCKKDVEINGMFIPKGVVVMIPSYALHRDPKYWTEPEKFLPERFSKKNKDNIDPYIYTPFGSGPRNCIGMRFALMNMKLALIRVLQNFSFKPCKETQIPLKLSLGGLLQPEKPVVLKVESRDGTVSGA

CYP3A4 [2] = biological target: T5, CYP3A4; assay: IC50 vs CYP3A by inhibition of lopinavir metabolism in human liver microsomes; design: 0.01 mg/mL protein human liver microsomes (BD Gentest); tissue BD Gentest; host or cells: human liver microsomes; details: 1.5 μM lopinavir, 0.01 mg/mL human liver microsomes, 8 min at 37° C.; read-out: CYP IC50 (nM) 3A4 (LPV)
Method in brief: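 Human liver microsomes (0.01 mg/mL) with 1.5 μM lopinavir, 1 mM NADPH, 3.3 mM MgCl2 in 100 mM potassium phosphate pH 7.4, 8 min at 37 °C, six compound concentrations. Summed M2/M3/M4 hydroxy metabolites quantified by LC/MS/MS against tolbutamide; % inhibition normalised between no-inhibitor and 5 μM ketoconazole controls, IC50 by non-linear regression.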
Target sequence in this assay (P08684 2-503): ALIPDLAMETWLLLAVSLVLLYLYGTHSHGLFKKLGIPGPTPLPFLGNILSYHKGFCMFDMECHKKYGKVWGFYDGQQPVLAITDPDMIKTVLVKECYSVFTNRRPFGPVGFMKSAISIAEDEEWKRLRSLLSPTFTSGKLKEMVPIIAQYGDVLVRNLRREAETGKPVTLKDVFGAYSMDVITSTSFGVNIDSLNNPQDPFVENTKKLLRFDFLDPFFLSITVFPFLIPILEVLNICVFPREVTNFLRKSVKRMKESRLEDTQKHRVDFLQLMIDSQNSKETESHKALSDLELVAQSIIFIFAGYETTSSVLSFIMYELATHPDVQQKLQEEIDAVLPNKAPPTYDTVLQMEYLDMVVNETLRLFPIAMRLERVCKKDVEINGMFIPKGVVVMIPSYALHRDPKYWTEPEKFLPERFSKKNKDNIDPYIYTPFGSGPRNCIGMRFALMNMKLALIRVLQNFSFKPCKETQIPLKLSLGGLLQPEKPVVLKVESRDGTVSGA

T2 sequence (P11712 whole entry): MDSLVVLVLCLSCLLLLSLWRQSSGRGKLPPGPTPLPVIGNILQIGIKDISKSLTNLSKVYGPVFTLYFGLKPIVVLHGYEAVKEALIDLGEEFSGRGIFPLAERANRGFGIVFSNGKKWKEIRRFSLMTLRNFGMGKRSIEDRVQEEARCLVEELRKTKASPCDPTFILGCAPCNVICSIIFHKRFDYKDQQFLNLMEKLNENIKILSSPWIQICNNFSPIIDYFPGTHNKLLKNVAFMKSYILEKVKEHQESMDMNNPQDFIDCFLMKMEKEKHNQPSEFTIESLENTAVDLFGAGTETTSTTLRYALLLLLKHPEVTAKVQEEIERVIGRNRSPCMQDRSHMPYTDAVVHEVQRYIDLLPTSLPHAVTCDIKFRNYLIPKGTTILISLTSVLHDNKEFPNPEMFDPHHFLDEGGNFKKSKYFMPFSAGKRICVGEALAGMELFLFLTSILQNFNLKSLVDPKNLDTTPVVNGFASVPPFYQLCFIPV
T3 sequence (P33261 whole entry): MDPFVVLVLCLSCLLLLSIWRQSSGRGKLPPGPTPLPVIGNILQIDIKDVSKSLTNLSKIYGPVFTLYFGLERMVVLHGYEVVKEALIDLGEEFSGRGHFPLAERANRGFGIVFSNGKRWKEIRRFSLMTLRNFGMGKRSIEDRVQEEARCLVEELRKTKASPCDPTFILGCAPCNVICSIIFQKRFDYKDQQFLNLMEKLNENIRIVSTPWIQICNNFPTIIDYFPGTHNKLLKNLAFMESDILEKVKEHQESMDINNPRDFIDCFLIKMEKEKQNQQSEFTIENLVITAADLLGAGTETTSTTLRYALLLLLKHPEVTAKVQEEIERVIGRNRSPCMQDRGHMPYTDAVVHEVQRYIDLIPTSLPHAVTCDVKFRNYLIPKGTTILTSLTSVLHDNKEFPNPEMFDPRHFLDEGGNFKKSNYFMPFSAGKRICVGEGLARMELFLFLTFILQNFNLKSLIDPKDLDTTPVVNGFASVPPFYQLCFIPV
T4 sequence (P10635 whole entry): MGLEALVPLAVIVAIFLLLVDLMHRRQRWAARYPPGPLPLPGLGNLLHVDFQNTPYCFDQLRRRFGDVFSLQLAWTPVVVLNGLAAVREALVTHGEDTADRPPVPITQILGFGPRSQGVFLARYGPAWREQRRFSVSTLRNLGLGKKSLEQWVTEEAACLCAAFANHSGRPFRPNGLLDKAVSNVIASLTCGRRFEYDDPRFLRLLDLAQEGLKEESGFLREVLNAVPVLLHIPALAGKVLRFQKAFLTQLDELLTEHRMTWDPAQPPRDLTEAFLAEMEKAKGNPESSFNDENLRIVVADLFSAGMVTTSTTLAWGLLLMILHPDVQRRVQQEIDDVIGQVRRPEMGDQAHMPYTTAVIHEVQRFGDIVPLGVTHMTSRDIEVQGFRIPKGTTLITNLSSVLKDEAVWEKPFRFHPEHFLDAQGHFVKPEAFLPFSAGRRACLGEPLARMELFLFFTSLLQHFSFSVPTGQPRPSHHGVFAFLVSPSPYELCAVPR

## CC(=O)Nc1ncc(S(=O)(=O)NCc2ccc(-c3cncn3CCc3ccc(F)cc3)cc2)s1 [Compound 12, N-(5-(N-(4-(1-(4-fluorophenethyl)-1H-imidazol-5-yl)benzyl)sulfamoyl)thiazol-2-yl)acetamide]
CYP1A2
  IC50: 2400 nM
CYP2C9
  IC50: 49 nM
CYP2C19
  IC50: 300 nM
CYP2D6
  IC50: 675 nM
CYP3A4 [1]
  IC50: 8.7 nM
CYP3A4 [2]
  IC50: 5 nM

## CC(=O)Nc1ncc(S(=O)(=O)N2CCCC2c2ccccc2-c2cncn2C2CC2)s1 (stereo not drawn) [Compound 31, N-(5-((2-(2-(1-cyclopropyl-1H-imidazol-5-yl)phenyl)pyrrolidin-1-yl)sulfonyl)thiazol-2-yl) acetamide]
CYP1A2
  IC50: > 10000 nM
CYP2C9
  IC50: > 10000 nM
CYP2C19
  IC50: > 10000 nM
CYP2D6
  IC50: > 10000 nM
CYP3A4 [1]
  IC50: 25.4 nM
CYP3A4 [2]
  IC50: 25.4 nM

## O=S(=O)(c1ccc(N2CCC(O)CC2)nc1)N1CCCC1c1ccccc1-c1cncn1CCc1ccc(F)cc1 (single isomer, unassigned) [Compound 33, (R or S)-1-(5-((2-(2-(1-(4-fluorophenethyl)-1H-imidazol-5-yl)phenyl)pyrrolidin-1-yl)sulfonyl)pyridin-2-yl) piperidin-4-ol]
CYP1A2
  IC50: > 10000 nM
CYP2C9
  IC50: 2890 nM
CYP2C19
  IC50: > 10000 nM
CYP2D6
  IC50: 6500 nM
CYP3A4 [1]
  IC50: 22.5 nM
CYP3A4 [2]
  IC50: 12.6 nM

## O=S(=O)(NCc1ccccc1-c1cncn1CCc1ccc(F)cc1)c1cccnc1 [Compound 17, N-(2-(1-(4-fluorophenethyl)-1H-imidazol-5-yl)benzyl)pyridine-3-sulfonamide]
CYP1A2
  IC50: > 10000 nM
CYP2C9
  IC50: > 10000 nM
CYP2C19
  IC50: > 10000 nM
CYP2D6
  IC50: 5200 nM
CYP3A4 [1]
  IC50: 10.5 nM
CYP3A4 [2]
  IC50: 35.9 nM

## O=S(=O)(c1ccc(N2CCC(O)CC2)nc1)N1CCCC1c1cccc(-c2cncn2CCc2ccc(F)cc2)c1 (single isomer, unassigned) [Compound 57b, (R or S)-1-(5-((2-(3-(1-(4-fluorophenethyl)-1H-imidazol-5-yl)phenyl)pyrrolidin-1-yl)sulfonyl)pyridin-2-yl) piperidin-4-ol]
CYP1A2
  IC50: 190 nM
CYP2C9
  IC50: 209 nM
CYP2C19
  IC50: 393 nM
CYP2D6
  IC50: 2230 nM
CYP3A4 [1]
  IC50: 4.52 nM
CYP3A4 [2]
  IC50: 1.4 nM

## O=S(=O)(c1ccc(NCC(O)C2CC2)nc1)N1CCCC1c1ccccc1-c1cncn1CCc1ccc(F)cc1 (single isomer, unassigned) [Compound 34a, 1-cyclopropyl-2-((5-(((R or S)-2-(2-(1-(4-fluorophenethyl)-1H-imidazol-5-yl)phenyl)pyrrolidin-1-yl)sulfonyl)pyridin-2-yl)amino)ethanol]
CYP1A2
  IC50: 7020 nM
CYP2C9
  IC50: 2620 nM
CYP2C19
  IC50: 2680 nM
CYP2D6
  IC50: 1670 nM
CYP3A4 [1]
  IC50: 10.4 nM
CYP3A4 [2]
  IC50: 4.5 nM

## Cn1cncc1-c1ccccc1C1CCCN1S(=O)(=O)c1cnc(N2CCN3C[C@H](O)C[C@H]3C2)s1 (stereo partly drawn) [Compound 24, (7R,8aS)-2-(5-((2-(2-(1-methyl-1H-imidazol-5-yl)phenyl)pyrrolidin-1-yl)sulfonyl)thiazol-2-yl)octahydro-pyrrolo[1,2-a] pyrazin-7-ol]
CYP1A2
  IC50: > 10000 nM
CYP2C9
  IC50: > 10000 nM
CYP2C19
  IC50: > 10000 nM
CYP2D6
  IC50: > 10000 nM
CYP3A4 [1]
  IC50: 32.5 nM
CYP3A4 [2]
  IC50: 29.5 nM

## CN1CCN(c2ncc(S(=O)(=O)N3CCCC3c3ccc(-c4cncn4CCc4ccc(F)cc4)cc3)s2)CC1 (stereo not drawn) [Compound 9, 5-((2-(4-(1-(4-fluorophenethyl)-1H-imidazol-5-yl)phenyl)pyrrolidin-1-yl)sulfonyl)-2-(4-methylpiperazin-1-yl)thiazole]
CYP1A2
  IC50: > 10000 nM
CYP2C9
  IC50: 684 nM
CYP2C19
  IC50: 148 nM
CYP2D6
  IC50: 2100 nM
CYP3A4 [1]
  IC50: 9 nM
CYP3A4 [2]
  IC50: 2.4 nM

## CS(=O)(=O)N1CCCC1c1ccccc1-c1cncn1CCc1ccc(F)cc1 (single isomer, unassigned) [Compound 23b, (R or S)-1-(4-fluorophenethyl)-5-(2-(1-(methylsulfonyl)pyrrolidin-2-yl)phenyl)-1H-imidazole]
CYP1A2
  IC50: > 10000 nM
CYP2C9
  IC50: > 10000 nM
CYP2C19
  IC50: > 10000 nM
CYP2D6
  IC50: > 10000 nM
CYP3A4 [1]
  IC50: 17 nM
CYP3A4 [2]
  IC50: 17.2 nM

## O=C(C1CC1)N1CCCC1c1ccccc1-c1cncn1CCc1ccc(F)cc1 (single isomer, unassigned) [Compound 44b, (R or S)-cyclopropyl(2-(2-(1-(4-fluorophenethyl)-1H-imidazol-5-yl)phenyl)pyrrolidin-1-yl)methanone]
CYP1A2
  IC50: > 10000 nM
CYP2C9
  IC50: 5900 nM
CYP2C19
  IC50: 7130 nM
CYP2D6
  IC50: > 10000 nM
CYP3A4 [1]
  IC50: 6.7 nM
CYP3A4 [2]
  IC50: 6.4 nM

## CC(c1ccccc1-c1cncn1CCc1ccc(F)cc1)N(C)S(=O)(=O)c1cnc(N2CCN(C)CC2)s1 (stereo not drawn) [Compound 4, N-(1-(2-(1-(4-fluorophenethyl)-1H-imidazol-5-yl)phenyl)ethyl)-N-methyl-2-(4-methylpiperazin-1-yl)thiazole-5-sulfonamide]
CYP1A2
  IC50: > 10000 nM
CYP2C9
  IC50: 2200 nM
CYP2C19
  IC50: 6700 nM
CYP2D6
  IC50: 5110 nM
CYP3A4 [1]
  IC50: 12 nM
CYP3A4 [2]
  IC50: 9 nM

## O=S(=O)(NCCc1ccccc1-c1cncn1CCc1ccc(F)cc1)c1cccnc1 [Compound 14, N-(2-(1-(4-fluorophenethyl)-1H-imidazol-5-yl)phenethyl)pyridine-3-sulfonamide]
CYP1A2
  IC50: > 10000 nM
CYP2C9
  IC50: 7410 nM
CYP2C19
  IC50: > 10000 nM
CYP2D6
  IC50: 1100 nM
CYP3A4 [1]
  IC50: 137 nM
CYP3A4 [2]
  IC50: 54 nM

## CC(=O)Nc1ncc(S(=O)(=O)N2CCCC2c2ccccc2-c2cncn2C)s1 (stereo not drawn) [Compound 30, N-(5-((2-(2-(1-methyl-1H-imidazol-5-yl)phenyl)pyrrolidin-1-yl)sulfonyl)thiazol-2-yl) acetamide]
CYP1A2
  IC50: > 10000 nM
CYP2C9
  IC50: > 10000 nM
CYP2C19
  IC50: > 10000 nM
CYP2D6
  IC50: > 10000 nM
CYP3A4 [1]
  IC50: 18.8 nM
CYP3A4 [2]
  IC50: 37.7 nM

## CC(NS(=O)(=O)c1cnc(N2CCN(C)CC2)s1)c1ccc(-c2cncn2CCc2ccc(F)cc2)cc1 (stereo not drawn) [Compound 3, N-(1-(4-(1-(4-fluorophenethyl)-1H-imidazol-5-yl)phenyl)ethyl)-2-(4-methylpiperazin-1-yl)thiazole-5-sulfonamide]
CYP1A2
  IC50: > 10000 nM
CYP2C9
  IC50: 4300 nM
CYP2C19
  IC50: > 10000 nM
CYP2D6
  IC50: 2530 nM
CYP3A4 [1]
  IC50: 22 nM
CYP3A4 [2]
  IC50: 14 nM

## CS(=O)(=O)N1CCCC1c1ccccc1-c1cncn1CCc1ccc(F)cc1 (single isomer, unassigned) [Compound 23a, (R or S)-1-(4-fluorophenethyl)-5-(2-(1-(methylsulfonyl)pyrrolidin-2-yl)phenyl)-1H-imidazole]
CYP1A2
  IC50: > 10000 nM
CYP2C9
  IC50: > 10000 nM
CYP2C19
  IC50: 6920 nM
CYP2D6
  IC50: 6720 nM
CYP3A4 [1]
  IC50: 36.4 nM
CYP3A4 [2]
  IC50: 58.5 nM

## O=S(=O)(c1ccc(N2CCN(CCO)CC2)nc1)N1CCCC1c1ccccc1-c1cncn1CCc1ccc(F)cc1 (single isomer, unassigned) [Compound 35b, (R or S)-2-(4-(5-((2-(2-(1-(4-fluorophenethyl)-1H-imidazol-5-yl)phenyl)pyrrolidin-1-yl)sulfonyl)pyridin-2-yl)piperazin-1-yl)ethanol]
CYP1A2
  IC50: > 10000 nM
CYP2C9
  IC50: 6930 nM
CYP2C19
  IC50: 9720 nM
CYP2D6
  IC50: 3060 nM
CYP3A4 [1]
  IC50: 4 nM
CYP3A4 [2]
  IC50: 0.9 nM
